Measured values published in PubChem BioAssay (NCI).
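Dose response: 5 concentrations. Exposure: 48 h. Format: 96-well plates. Endpoint: linear interpolation; highest concentration if not reached. TGI is the concentration that stops growth completely.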

Assays:
Test in all cases: NCI anticancer screen, dose series, 48 h
HCC-2998 colon = system: HCC-2998 colon
OVCAR-3 ovarian = system: OVCAR-3 ovarian
UACC-257 melanoma = system: UACC-257 melanoma
SK-MEL-28 melanoma = system: SK-MEL-28 melanoma
SK-OV-3 ovarian = system: SK-OV-3 ovarian
786-0 renal = system: 786-0 renal
SW-620 colon = system: SW-620 colon
HCT-116 colon = system: HCT-116 colon
IGROV1 ovarian = system: IGROV1 ovarian
EKVX NSCLC = system: EKVX NSCLC
SNB-78 CNS = system: SNB-78 CNS
MALME-3M melanoma = system: MALME-3M melanoma
A549 NSCLC = system: A549 NSCLC
CAKI-1 renal = system: CAKI-1 renal
SR leukemia = system: SR leukemia
A498 renal = system: A498 renal
M19-MEL melanoma = system: M19-MEL melanoma
SK-MEL-2 melanoma = system: SK-MEL-2 melanoma
COLO 205 colon = system: COLO 205 colon
NCI-H522 lung = system: NCI-H522 lung
NCI-H460 lung = system: NCI-H460 lung
UO-31 renal = system: UO-31 renal
NCI-H23 lung = system: NCI-H23 lung
SN12C renal = system: SN12C renal
SNB-75 CNS = system: SNB-75 CNS
KM12 colon = system: KM12 colon
OVCAR-4 ovarian = system: OVCAR-4 ovarian
RXF-631 renal = system: RXF-631 renal
HOP-62 NSCLC = system: HOP-62 NSCLC
M14 melanoma = system: M14 melanoma
LXFL 529 NSCLC = system: LXFL 529 NSCLC
UACC-62 melanoma = system: UACC-62 melanoma
HCT-15 colon = system: HCT-15 colon
CCRF-CEM leukemia = system: CCRF-CEM leukemia
SF-295 CNS = system: SF-295 CNS
HOP-92 NSCLC = system: HOP-92 NSCLC
OVCAR-8 ovarian = system: OVCAR-8 ovarian
RXF 393 renal = system: RXF 393 renal
SF-539 CNS = system: SF-539 CNS
NCI-H226 lung = system: NCI-H226 lung
HL-60(TB) leukemia = system: HL-60(TB) leukemia
K-562 leukemia = system: K-562 leukemia
HOP-18 NSCLC = system: HOP-18 NSCLC
SNB-19 CNS = system: SNB-19 CNS
DMS 273 small cell lung = system: DMS 273 small cell lung
ACHN renal = system: ACHN renal
OVCAR-5 ovarian = system: OVCAR-5 ovarian
U251 CNS = system: U251 CNS
HT29 colon = system: HT29 colon
XF 498 CNS = system: XF 498 CNS
TK-10 renal = system: TK-10 renal
DLD-1 colon = system: DLD-1 colon
SF-268 CNS = system: SF-268 CNS
DMS 114 small cell lung = system: DMS 114 small cell lung
RPMI-8226 leukemia = system: RPMI-8226 leukemia
MOLT-4 leukemia = system: MOLT-4 leukemia
LOX IMVI melanoma = system: LOX IMVI melanoma
KM20L2 colon = system: KM20L2 colon
SK-MEL-5 melanoma = system: SK-MEL-5 melanoma

## N/C(=N\N=C\c1cccs1)NO
HCC-2998 colon
  TGI: > 100 µM
OVCAR-3 ovarian
  TGI: > 100 µM
UACC-257 melanoma
  TGI: > 100 µM
SK-MEL-28 melanoma
  TGI: > 100 µM
SK-OV-3 ovarian
  TGI: > 100 µM
786-0 renal
  TGI: > 100 µM
SW-620 colon
  TGI: > 100 µM
HCT-116 colon
  TGI: > 100 µM
IGROV1 ovarian
  TGI: > 100 µM
EKVX NSCLC
  TGI: > 100 µM
SNB-78 CNS
  TGI: > 100 µM
MALME-3M melanoma
  TGI: > 100 µM
A549 NSCLC
  TGI: > 100 µM
CAKI-1 renal
  TGI: > 100 µM
SR leukemia
  TGI: > 100 µM
A498 renal
  TGI: > 100 µM
M19-MEL melanoma
  TGI: > 100 µM
SK-MEL-2 melanoma
  TGI: > 100 µM
COLO 205 colon
  TGI: > 100 µM
NCI-H522 lung
  TGI: > 100 µM
NCI-H460 lung
  TGI: > 100 µM
UO-31 renal
  TGI: > 100 µM
NCI-H23 lung
  TGI: > 100 µM
SN12C renal
  TGI: > 100 µM
SNB-75 CNS
  TGI: > 100 µM
KM12 colon
  TGI: > 100 µM
OVCAR-4 ovarian
  TGI: > 100 µM
RXF-631 renal
  TGI: > 100 µM
HOP-62 NSCLC
  TGI: > 100 µM
M14 melanoma
  TGI: > 100 µM
LXFL 529 NSCLC
  TGI: > 100 µM
UACC-62 melanoma
  TGI: 51 µM
HCT-15 colon
  TGI: > 100 µM
CCRF-CEM leukemia
  TGI: > 100 µM
SF-295 CNS
  TGI: > 100 µM
HOP-92 NSCLC
  TGI: > 100 µM
OVCAR-8 ovarian
  TGI: > 100 µM
RXF 393 renal
  TGI: > 100 µM
SF-539 CNS
  TGI: > 100 µM
NCI-H226 lung
  TGI: > 100 µM
HL-60(TB) leukemia
  TGI: > 100 µM
K-562 leukemia
  TGI: > 100 µM
HOP-18 NSCLC
  TGI: > 100 µM
SNB-19 CNS
  TGI: > 100 µM
DMS 273 small cell lung
  TGI: > 100 µM
ACHN renal
  TGI: > 100 µM
OVCAR-5 ovarian
  TGI: > 100 µM
U251 CNS
  TGI: > 100 µM
HT29 colon
  TGI: > 100 µM
XF 498 CNS
  TGI: > 100 µM
TK-10 renal
  TGI: > 100 µM
DLD-1 colon
  TGI: > 100 µM
SF-268 CNS
  TGI: > 100 µM
DMS 114 small cell lung
  TGI: > 100 µM

## COC(=O)C(C(=O)C(=O)NC1=C(Cl)C(=O)c2ccccc2C1=O)c1csc(-n2nc(-c3ccccc3)cc2-c2ccccc2)n1 (stereo not drawn)
HCC-2998 colon
  TGI: > 100 µM
OVCAR-3 ovarian
  TGI: > 100 µM
UACC-257 melanoma
  TGI: > 100 µM
SK-OV-3 ovarian
  TGI: > 100 µM
786-0 renal
  TGI: > 100 µM
SW-620 colon
  TGI: > 100 µM
HCT-116 colon
  TGI: > 100 µM
IGROV1 ovarian
  TGI: > 100 µM
EKVX NSCLC
  TGI: > 100 µM
SNB-78 CNS
  TGI: > 100 µM
MALME-3M melanoma
  TGI: > 100 µM
A549 NSCLC
  TGI: > 100 µM
CAKI-1 renal
  TGI: > 100 µM
SR leukemia
  TGI: > 100 µM
A498 renal
  TGI: > 100 µM
M19-MEL melanoma
  TGI: > 100 µM
COLO 205 colon
  TGI: > 100 µM
NCI-H522 lung
  TGI: > 100 µM
NCI-H460 lung
  TGI: > 100 µM
UO-31 renal
  TGI: > 100 µM
NCI-H23 lung
  TGI: > 100 µM
RPMI-8226 leukemia
  TGI: > 100 µM
SN12C renal
  TGI: > 100 µM
SNB-75 CNS
  TGI: 9.4 µM
KM12 colon
  TGI: > 100 µM
OVCAR-4 ovarian
  TGI: > 100 µM
RXF-631 renal
  TGI: > 100 µM
HOP-62 NSCLC
  TGI: > 100 µM
M14 melanoma
  TGI: > 100 µM
LXFL 529 NSCLC
  TGI: > 100 µM
UACC-62 melanoma
  TGI: > 100 µM
HCT-15 colon
  TGI: > 100 µM
CCRF-CEM leukemia
  TGI: > 100 µM
SF-295 CNS
  TGI: > 100 µM
HOP-92 NSCLC
  TGI: > 100 µM
OVCAR-8 ovarian
  TGI: > 100 µM
RXF 393 renal
  TGI: > 100 µM
NCI-H226 lung
  TGI: > 100 µM
HL-60(TB) leukemia
  TGI: > 100 µM
K-562 leukemia
  TGI: > 100 µM
HOP-18 NSCLC
  TGI: > 100 µM
SNB-19 CNS
  TGI: > 100 µM
DMS 273 small cell lung
  TGI: > 100 µM
ACHN renal
  TGI: > 100 µM
OVCAR-5 ovarian
  TGI: > 100 µM
U251 CNS
  TGI: > 100 µM
HT29 colon
  TGI: > 100 µM
XF 498 CNS
  TGI: > 100 µM
MOLT-4 leukemia
  TGI: > 100 µM
TK-10 renal
  TGI: > 100 µM
DLD-1 colon
  TGI: > 100 µM
LOX IMVI melanoma
  TGI: > 100 µM
SF-268 CNS
  TGI: > 100 µM
DMS 114 small cell lung
  TGI: > 100 µM
KM20L2 colon
  TGI: > 100 µM

## CC(=O)N(C)c1ccc2c(ccc[n+]2[O-])c1[N+](=O)[O-]
HCC-2998 colon
  TGI: > 100 µM
OVCAR-3 ovarian
  TGI: > 100 µM
UACC-257 melanoma
  TGI: > 100 µM
SK-MEL-28 melanoma
  TGI: > 100 µM
786-0 renal
  TGI: > 100 µM
SW-620 colon
  TGI: > 100 µM
HCT-116 colon
  TGI: > 100 µM
IGROV1 ovarian
  TGI: > 100 µM
EKVX NSCLC
  TGI: > 100 µM
SNB-78 CNS
  TGI: > 100 µM
MALME-3M melanoma
  TGI: > 100 µM
A549 NSCLC
  TGI: > 100 µM
SK-MEL-5 melanoma
  TGI: > 100 µM
CAKI-1 renal
  TGI: > 100 µM
A498 renal
  TGI: > 100 µM
M19-MEL melanoma
  TGI: > 100 µM
SK-MEL-2 melanoma
  TGI: > 100 µM
COLO 205 colon
  TGI: > 100 µM
NCI-H460 lung
  TGI: > 100 µM
UO-31 renal
  TGI: > 100 µM
NCI-H23 lung
  TGI: > 100 µM
RPMI-8226 leukemia
  TGI: > 100 µM
SN12C renal
  TGI: > 100 µM
SNB-75 CNS
  TGI: > 100 µM
KM12 colon
  TGI: > 100 µM
OVCAR-4 ovarian
  TGI: > 100 µM
RXF-631 renal
  TGI: > 100 µM
HOP-62 NSCLC
  TGI: > 100 µM
M14 melanoma
  TGI: > 100 µM
LXFL 529 NSCLC
  TGI: > 100 µM
UACC-62 melanoma
  TGI: > 100 µM
HCT-15 colon
  TGI: > 100 µM
CCRF-CEM leukemia
  TGI: > 100 µM
SF-295 CNS
  TGI: > 100 µM
OVCAR-8 ovarian
  TGI: > 100 µM
RXF 393 renal
  TGI: > 100 µM
SF-539 CNS
  TGI: > 100 µM
NCI-H226 lung
  TGI: > 100 µM
HL-60(TB) leukemia
  TGI: > 100 µM
K-562 leukemia
  TGI: > 100 µM
HOP-18 NSCLC
  TGI: > 100 µM
DMS 273 small cell lung
  TGI: > 100 µM
ACHN renal
  TGI: > 100 µM
OVCAR-5 ovarian
  TGI: > 100 µM
U251 CNS
  TGI: > 100 µM
HT29 colon
  TGI: > 100 µM
XF 498 CNS
  TGI: > 100 µM
MOLT-4 leukemia
  TGI: > 100 µM
TK-10 renal
  TGI: > 100 µM
DLD-1 colon
  TGI: > 100 µM
LOX IMVI melanoma
  TGI: > 100 µM
SF-268 CNS
  TGI: > 100 µM
DMS 114 small cell lung
  TGI: > 100 µM
KM20L2 colon
  TGI: > 100 µM
